Patent US20170137818A1, “APTAMER INHIBITING BIOLOGICAL ACTIVITY OF AUTOTAXIN BY BINDING WITH AUTOTAXIN, AND USE THEREOF” (RIBOMIC INC., priority 2014, published 2017)

Legend:
autotaxin [1] = biological target: T1, autotaxin (Homo sapiens, UniProt Q13822); assay: Biacore surface plasmon resonance, autotaxin immobilized on CM4 chip, nucleic acid as analyte; type: binding; conditions: autotaxin immobilized about 2700 RU, nucleic acid 0.3 μM as analyte; maximum RU relative to SEQ ID NO: 12
T1 construct: His; purchased R&D
Procedure: In another measurement method, an autotaxin is first immobilized on a sensorchip. The immobilization amount is set to about 2700 RU. An aptamer solution as an analyte prepared to 0.30 μM is injected by 20 μL, and binding of the aptamer to the autotaxin is detected.
All nucleic acids of SEQ ID NOs: 11-16 were produced by chemical synthesis. Whether these nucleic acids bind to autotaxin was evaluated by the surface plasmon resonance method. For the measurement, Biacore T100 manufactured by GE Healthcare was used, and the measurement was performed by the method shown below. About 2700 RU autotaxin was immobilized on a sensorchip surface of CM4 chip by using an amino coupling kit. The flow rate was 20 μL/min, and nucleic acids (20 μL) prepared to 0.3 μM were injected as an analyte. As a running buffer, solution A was used.

autotaxin [2] = biological target: T1, autotaxin; assay: NPP2 inhibitory assay (pNP-TMP substrate); type: biochemical; conditions: mean of 2-3 measurements ± standard deviation
Description: Whether an aptamer inhibits the enzyme activity of autotaxin can be evaluated, for example, by the following test. As a substrate of autotaxin, phosphodiester bond-containing synthetic substrate p-nitrophenyl thymidine 5′-monophosphate (pNP-TMP) (SIGMA) is used. A phosphodiester bond is cleaved by hydrolysis, and p-nitrophenol is liberated. The p-nitrophenol develops a yellow color, and the color is detected. For the assay, a 96-well plate (96-Well EIAsurasshuRIA Polystyrene Plates, Costar) was used, and the amount of the reaction mixture was 200 μL. Nucleic acid was prepared in solution A (see below-mentioned Example 1) (100 μL), pNP-TMP (20 μL) adjusted to 10 mM in the reaction mixture A was added, and the mixture was stirred well and heated at 37° C. for 5 min. On the other hand, 6 ng of autotaxin (Recombinant Human, manufactured by R&D) diluted with solution A was prepared (80 μL), and heated at 37° C. for 5 min. After heating, they were mixed to start an enzyme reaction. The final autotaxin concentration in the reaction solution was 0.3 nM, and the final substrate concentration was 1 mM. A plate containing the reaction mixture was heated at 37° C. for 24 hr, placed in a microplate reader SpectraMax190 (manufactured by Molecular Devices) and the absorbance was determined at wavelength 405 nm. The absorbance when nucleic acid is not added as 100% (A0), an enzyme activity rate was determined from the absorbance (A) of each test substance and according to the following formula.
Enzyme activity rate=(A/A0)×100
(§1) The concentration (IC50) of an inhibitor necessary for inhibiting the enzyme activity by 50% was determined.
Whether these nucleic acids show an autotaxin inhibitory activity was evaluated by the following method. As a substrate of autotaxin, phosphodiester bond-containing synthetic substrate p-nitrophenyl thymidine 5′-monophosphate (pNP-TMP) (SIGMA) was selected (hereinafter to be referred to as NPP2 inhibitory assay). A phosphodiester bond is cleaved by hydrolysis, and p-nitrophenol is liberated. The p-nitrophenol develops a yellow color, and the color is detected. For the assay, a 96-well plate (96-Well EIA/RIA Polystyrene Plates, Costar) was used, and the amount of the reaction mixture was 200 μL. As the reaction mixture, solution A was used. Nucleic acids were prepared in solution A (100 μL), pNP-TMP (20 μL) adjusted to 10 mM in the reaction mixture A was added, and the mixture was stirred well and heated at 37° C. for 5 min. On the other hand, 6 ng of autotaxin diluted with solution A was prepared (80 μL), and heated at 37° C. for 5 min. After heating, they were mixed to start enzyme reaction. The final autotaxin concentration in the reaction solution was 0.3 nM, and the final substrate concentration was 1 mM. A plate containing the reaction mixture was heated at 37° C. for 24 hr, placed in a microplate reader SpectraMax190 (manufactured by Molecular Devices) and the absorbance was determined at wavelength 405 nm. The absorbance when nucleic acids are not added as 100% (A0), an […] was determined from the absorbance (A) of each test substance and according to the following formula.
as §1

autotaxin [3] = biological target: T1, autotaxin; assay: LysoPLD inhibitory assay (14:0 LPC substrate, choline detection); type: biochemical
Description: As a substrate of autotaxin, 14:0 lysophosphatidylcholine (LPC, Avanti) was selected (hereinafter to be referred to as LysoPLD inhibitory assay). LPC is hydrolyzed by the lysophospholipase D activity of autotaxin and decomposed into lysophosphatidic acid (LPA) and choline. Choline is oxidized by choline oxidase to afford hydrogen peroxide. In the presence of the hydrogen peroxide and peroxidase, N-ethyl-N-(2-hydroxy-3-sulfopropyl)-3-methoxyaniline (TOOS) and 4-aminoantipyrine (4-AA) undergo oxidation condensation reaction, which develops a purple color to be detected.
For the reaction, a 96-well plate (polypropylene 96-well, manufactured by BMbio) was used, and the amount of the reaction mixture was 60 μL. As a reaction solution, solution A was used. […] The lysophospholipase D activity of autotaxin was evaluated as follows. […] The absorbance was measured at a wavelength of 548 nm, and used as a blank value. Then, solution C (50 μL) was added, and changes in the absorbance at wavelength 548 nm were measured over time. Solution C contained 100 mM tris (pH 8.0), 10 U/mL choline oxidase (manufactured by TOYOBO), 1 mM 4-AA (manufactured by DOJINDO), and 0.01% Triton-X. The absorbance of solution blank at the time point when solution B was added, which had been measured earlier, was subtracted from the absorbance at 15 min after addition of solution C, whereby true absorbance value was obtained. […]

autotaxin [4] = biological target: T1, autotaxin; assay: Biacore surface plasmon resonance, nucleic acid immobilized on SA chip, autotaxin as analyte; type: binding; conditions: Example 1, running text
Procedure: Biacore T100 manufactured by GE Healthcare is used for the measurement of binding strength. In one measurement method, an aptamer is first immobilized on a sensorchip. The immobilization amount is set to about 1500 RU. An autotaxin solution as an analyte prepared to 0.020 μM is injected by 20 μL, and binding of the autotaxin to the aptamer is detected.
All nucleic acids shown in SEQ ID NOs: 4-10 were produced by chemical synthesis. The binding activity of these nucleic acids to autotaxin was evaluated by the surface plasmon resonance method. For the measurement, Biacore T100 manufactured by GE Healthcare was used. The SA chips with streptavidin immobilized thereon were used as the sensor chips. Binding thereto was about 1500 RU of 16 nucleotide Poly dT of which biotin was bound to the 5′-terminus. The nucleic acids used as a ligand were added with Poly A (16 nucleotides) to the 3′-terminus, and were immobilized on SA chips by T-A annealing. The nucleic acids (20 μL) were injected at a flow rate of 20 μL/min to immobilize about 1500 RU of the nucleic acids. An autotaxin for analyte was prepared at 0.02 μM, and 20 μL thereof was injected. As a running buffer, solution A (mixed solution of 145 mM sodium chloride, 5.4 mM potassium chloride, 1.8 mM calcium chloride, 0.8 mM magnesium chloride, 20 mM Tris (pH 7.6), 0.05% Tween20) was used.

[5] = Table 4, >1.0 = no inhibitory activity up to 1.0 μM

Compound	Binding activity by Biacore (autotaxin [1])	IC50 (autotaxin [2]; Table 2) [nM]	IC50 (autotaxin [2]; [5]) [nM]	also measured
11 (GTACTCATGGACGGAACCAGAATACTTTTGGTCTCCATTGAGTAC; chemistry not fully specified) [compound 11]	+ (not less than that)			
12 (CCTGGACGGAACCAGAATACTTTTGGTCTCCAGG; chemistry not fully specified) [compound 12]	+ (not less than that)			
13 (TGGACGGAACCAGAATACTTTTGGTCTCCA; DNA, backbone and methylation of C not given here) [compound 13]	+ (not less than that)	110 ± 7		
14 (GGGACGGAACCAGAATACTTTTGGTCTCCC; DNA, backbone and methylation of C not given here) [compound 14]	+ (not less than that)	42 ± 5		
15 (CCTGGACGGAACCAATACTTGGTCTCCAGG; DNA, backbone and methylation of C not given here) [compound 15]	− (not more than 10% of the aptamer shown in SEQ ID NO: 12 that showed the highest binding amount)	990 ± 11		
16 (CTGGACGGAACCAGAATACTTTTGGTCTCCAG; DNA, backbone and methylation of C not given here) [compound 16]	+ (not less than that)	18 ± 1		
26 (CGCTGGGGTACGCTCGGAACCGAGGCAATTGGTCAGCG; DNA, backbone and methylation of C not given here) [compound 26]			440 ± 41	
27 (TACGCTCGGAACCGAGGCAATTGGTCAGCGTG; DNA, backbone and methylation of C not given here) [compound 27]			24 ± 10	
28 (ACAGGCGCTGGCCGGAACCGTGCATATGGTC; DNA, backbone and methylation of C not given here) [compound 28]			> 1000	
29 (GCTGGCCGGAACCGTGCATATGGTCGCCAGC; DNA, backbone and methylation of C not given here) [compound 29]			11 ± 4	
CCCCCCCCCCCCCC(=O)Nc1ccc(CP(=O)(O)O)cc1 [S32826]				LysoPLD inhibitory activity (in words) (autotaxin [3]): an inhibitory activity was not found; IC50 (autotaxin [3]; autotaxin 2.1 nM, 14:0 LPC 2 mM, 37° C. 6 hr, mean of 2-3 measurements±standard deviation, >1000 = no inhibitory activity up to 1000 nM): > 1000 nM
GTGGTCTAGCTGTACTCNNNNNNNNNNNNNNNNNNNNNNNNNNNNNNNNNNNNNNNNCCACAGTCAACGAGCTA [SEQ ID NO: 1(40N), reference compound]				binding to autotaxin (in words) (autotaxin [4]): not bind
